Experimental findings from article PMC3319116 (Journal of Medicinal Chemistry, 2012) are described below.

The test system of data set [1] is MDCK-mdr1 cells. The data set is described as follows: MDCK-mdr1 permeability assay. The settings on record: apical to basal, 3.16 μM, 1 hr, 37°C, pH 7.4; % transported.
For data set [2], the target named is T1, CB1 (Homo sapiens, UniProt P21554). The data set can be described thus: CB1 Gαq16-coupled intracellular calcium mobilization assay in CHO-K1 cells. Type of data set: cell-based. For orientation: Calcium flux is commonly read through the fluorescence of an indicator in the cells.
Data set [3] has as its target T1, CB1. The data set can be described thus: Radioligand displacement of [3H]CP55940 at CB1. Type of data set: binding. The settings on record: Ki vs CP55940. In general terms: Displacement assays read how much labelled ligand stays bound in the presence of the test substance.

Each structure is given as a SMILES string.

T1 sequence (P21554 whole entry): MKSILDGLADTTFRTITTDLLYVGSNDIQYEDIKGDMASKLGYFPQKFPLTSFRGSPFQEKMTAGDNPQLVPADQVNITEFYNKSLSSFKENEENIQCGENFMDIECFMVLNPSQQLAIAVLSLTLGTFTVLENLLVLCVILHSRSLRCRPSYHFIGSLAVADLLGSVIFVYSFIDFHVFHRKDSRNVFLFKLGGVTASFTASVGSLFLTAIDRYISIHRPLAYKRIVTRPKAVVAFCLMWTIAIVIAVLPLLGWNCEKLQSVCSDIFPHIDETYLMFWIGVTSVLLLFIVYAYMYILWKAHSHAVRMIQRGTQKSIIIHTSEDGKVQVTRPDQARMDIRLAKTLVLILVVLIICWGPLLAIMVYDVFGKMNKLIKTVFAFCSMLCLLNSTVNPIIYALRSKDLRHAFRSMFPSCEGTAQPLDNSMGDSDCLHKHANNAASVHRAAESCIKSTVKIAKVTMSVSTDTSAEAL

For `Cc1c(C(=O)NCC2CCC(CNS(C)(=O)=O)CC2)nn(-c2ccc(Cl)cc2Cl)c1-c1ccc(Cl)cc1` (centres unmarked) [Compound 7], the “MDCK-mdr1 permeability A to B” value in data set [1] is below 1%.

For `Cc1c(C(=O)NCC2CCC(CNS(N)(=O)=O)CC2)nn(-c2ccc(Cl)cc2Cl)c1-c1ccc(Cl)cc1` (centres unmarked) [Compound 8], the “MDCK-mdr1 permeability A to B” value in data set [1] is below 1%.

Regarding `Cc1c(C(=O)N[C@@H]2CCCN(S(C)(=O)=O)C2)nn(-c2ccc(Cl)cc2Cl)c1-c1ccc(Cl)cc1` [Compound 20d, 5-(4-Chlorophenyl)-1-(2,4-dichlorophenyl)-N-[(3R)-1-methanesulfonylpiperidin-3-yl]-4-methyl-1H-pyrazole-3-carboxamide], in data set [2], the Kb was 7 nM. In addition, the “potency relative to sulfonamide 7” value in data set [2] (Ke CB1, fold more potent than 7) stood at 16 fold. In addition, in data set [3], the “selectivity for CB1 versus CB2” value is listed as “over 100 fold”.
